What was measured:
HTLA 230 = experiment: DCFH assay of ROS (H2O2) production, HTLA 230; assay type: cell-based, human; conditions: for highest value of DCFH-positive cells: normalized for protein content, control = 1
Source text: (§1) It has been reported that the administration of TPP-based compounds, including TPP-based bola amphiphilic nanovesicles such as BPPB, induce ROS overproduction, thus causing oxidative stress (OS), which has been widely reported to be involved in the anticancer effect of several chemotherapeutic drugs, including etoposide, doxorubicin [38], and cisplatin [39]. […] On the contrary, the role of ROS was scarcely present in PLX-resistant CMM cells exposed to the same concentrations of BPPB [13]. With these considerations, we evaluated ROS levels also in NB cells treated with BPPB, since this experiment would have been particularly helpful to understand whether (i) these nanovesicles’ preparation exerts its cytotoxic action on HTLA 230 and ER cells through ROS production, as in PLX-sensitive CMM cells; or (ii) the resistance acquired by HTLA ER based on high levels of antioxidants, following chronic treatment with etoposide, conferred resistance also to a preparation based on the use of nanovesicles (BPPBs). Moreover, the evaluation of ROS levels can be an indirect method to ascertain and confirm the presence of apoptosis, since as reported, low levels of ROS induce apoptosis and high levels induce necrosis.Therefore, to investigate the pro-oxidant action of BPPB also in HTLA 230 and HTLA ER NB cells, ROS levels were evaluated in both NB cell populations exposed for 24–72 h to increasing concentrations (0.1–2 µM) of BPPB using the DCFH essay (Figure 4). The results were reported as a percentage of cells positive to DCFH normalized for protein content. Raw fluorescence data are, in fact, not applicable since an increase in fluorescence could be due to a high number of cells but also to an increased production of H2O2 induced by the treatments. This is the reason why it is necessary to normalize the fluorescence data to the protein content. Other cellular assays measuring oxidative damage, including lipid peroxidation or protein carbonylation, are likely too complex for low-tier early hazard assessment or hazard screening. Conversely, the cellular DCFH assay is a simpler and widely used alternative, which measures intracellular ROS production by forming a fluorescent product (DCF) upon oxidation by free radicals produced by cells.
(§2) The production of H2O2 was evaluated using 2′-7′-dichlorofluorescein-diacetate (DCFH-DA; Merk Life Science S.r.l. Milan, Italy), as previously reported. Briefly, NB cells (10^4 cells/well) were seeded in 96-well plates (Corning) and treated. Then, cells were stained with 2′-7′ di-chloro-fluorescein-diacetate (DCFH-DA; Sigma-Aldrich) and incubated with 90% DMSO for an additional 10 min in the dark. The generated fluorescence intensity was monitored with a Perkin Elmer fluorometer (Perkin Elmer Life and Analytical Sciences, Shelton, WA, USA) at 485/530 nm excitation/emission. Values were normalized to the protein content.

HTLA ER = experiment: DCFH assay of ROS (H2O2) production, HTLA ER; assay type: cell-based, human
Source text: as §1, §2

RBCs = experiment: Haemolytic toxicity on red blood cells; assay type: cell-based; conditions: for SI 24 h: 24 h exposure of NB cells; for SI 48 h: 48 h exposure of NB cells; for SI 72 h: 72 h exposure of NB cells
Procedure: The IC50 values reported in Table 3 were determined after 24, 48, and 72 h of exposure of NB cells and primary cortical astrocytes and neurons to BPPB, and the HC50 determined on RBCs after the time of experiments, as for protocol, was used to calculate the SIs according to Equation (1), as reported in Table 4.

## c1ccc([P+](CCCCCCCCCCCC[P+](c2ccccc2)(c2ccccc2)c2ccccc2)(c2ccccc2)c2ccccc2)cc1 [BPPB, 1,1-(1,12-dodecanediyl)-bis-[1,1,1]-triphenyl phosphonium di-bromide]
HTLA 230; 24 h
  concentration giving significant increase in ROS levels: ≥ 0.5 µM
  highest value of DCFH-positive cells: 2.96
HTLA 230; 24 h exposure
  increase in ROS with respect to the control: > 3 times
HTLA 230; 48 h
  average ROS production in HTLA 230 higher than in HTLA ER: 1.3 times
  concentration giving significant increase in ROS levels: ≥ 0.5 µM
  highest value of DCFH-positive cells: 3.05
HTLA 230; 72 h
  average ROS production in HTLA 230 higher than in HTLA ER: 1.4 times
  concentration giving significant increase in ROS levels: ≥ 0.25 µM
HTLA 230; 72 h, highest doses
  highest value of DCFH-positive cells: 5.8
HTLA 230; HTLA 230 and HTLA ER, 24 h
  more efficient in inducing ROS overproduction than TiO2-Ta nanoparticles: 9.4–23.4 fold
HTLA ER; 24 h
  concentration significantly inducing ROS overproduction: 1.25 µM
  concentrations that did not induce significant changes in ROS levels: ≤ 1 µM
HTLA ER; 24 h, normalized for protein content, control = 1
  highest value of DCFH-positive cells: 4.92
HTLA ER; 24 h exposure
  increase in ROS with respect to the control: > 4 times
HTLA ER; 48 h
  concentrations that did not induce significant changes in ROS levels: ≤ 1.25 µM
HTLA ER; 48 h, normalized for protein content, control = 1
  highest value of DCFH-positive cells: 3.67
HTLA ER; 72 h
  concentrations that did not induce significant changes in ROS levels: ≤ 0.75 µM
  maximal DCFH value in HTLA ER lower than in HTLA 230: 1.16 times
HTLA ER; 72 h, normalized for protein content, control = 1
  maximal value of DCFH-positive cells: 4.99
RBCs; RBCs vs. HTLA 230
  SI 24 h: 16.81
  SI 48 h: 33.66
  SI 72 h: 39.98
RBCs; RBCs vs. HTLA ER
  SI 24 h: 12.56
  SI 48 h: 11.49
  SI 72 h: 12.98

Reference: article PMC12154426, “TPP-Based Nanovesicles Kill MDR Neuroblastoma Cells and Induce Moderate ROS Increase, While Exerting Low Toxicity Towards Primary Cell Cultures: An In Vitro Study” (International Journal of Molecular Sciences, 2025)
